A word on the Ki: it is the dissociation constant of the complex between target and ligand, obtained from inhibition or displacement. Read a low Ki as tighter binding. Broadly, the IC50 is the point on the concentration scale where inhibition reaches its midpoint. Usually inhibition stands for how much of the control response was suppressed. One may read the Kb as the affinity of an antagonist, worked out from how it opposes an agonist. For orientation: Papp means the rate of passage across a membrane or cell layer, normalised by area and donor concentration.

The source of these data is ChEMBL document CHEMBL4842370, “Discovery of 1-(phenylsulfonyl)-1H-indole-based multifunctional ligands targeting cholinesterases and 5-HT6 receptor with anti-aggregation properties against amyloid-beta and tau” (Eur J Med Chem, 2021).

The source made the active and inactive calls. The rule behind the calls is not given here.

In series [1] the target is T1, 5-hydroxytryptamine receptor 6 (Homo sapiens, UniProt P50406). The series can be described thus: Displacement of [3H]-LSD from human 5HT6R expressed in CHO-K1 cell membranes incubated for 1 hr by scintillation counter method. On the set-up: species or system Membrane.
Another series has as its target Acetylcholinesterase (Electrophorus electricus, UniProt O42275). Description: Inhibition of electric eel AChE using acetylthiocholine iodide as substrate incubated for 5 mins followed by substrate addition and measured after 5 mins by spectrophotometric based Ellman's method. (In general: In Ellman's method for cholinesterases, released thiocholine reacts with DTNB.)

For series [2], the target named is T2, Amyloid-beta precursor protein (Homo sapiens, UniProt P05067). Description: Inhibition of HFIP-pretreated human recombinant amyloid beta (1 to 42) self aggregation at 10 uM incubated up to 48 hrs under shaking condition and measured every 3 min by Thioflavin T based fluorescence assay relative to control.
In a further series the target is Cholinesterase (Equus caballus, UniProt P81908).
Series [3] addresses T2, Amyloid-beta precursor protein. The series can be described thus: Inhibition of amyloid beta (1 to 42) (unknown origin) aggregation expressed in Escherichia coli BL21 (DE3) at 10 uM incubated for 24 hrs by microplate reader assay relative to control.
For another series, the species on record is Homo sapiens. Description: Inhibition of tau protein (unknown origin) expressed in Escherichia coli BL21 (DE3) at 10 uM incubated for 24 hrs by microplate reader assay relative to control.
Series [4] addresses T1, 5-hydroxytryptamine receptor 6. The series can be described thus: Antagonist activity at human 5HT6R expressed in 1321N1 cells assessed as inhibition of […] cAMP production measured after 30 mins by TR-FRET assay. The class given is functional, cell-based. As to conditions: filed as antagonist. Background: Changes in cAMP serve as a functional read-out for many G protein-coupled receptors.

Series [5] addresses T2, Amyloid-beta precursor protein. The series can be described thus: Inhibition of HFIP-pretreated human recombinant amyloid beta (1 to 42) self aggregation incubated up to 48 hrs under shaking condition and measured every 3 min by Thioflavin T based fluorescence assay.
Another series concerns the target Cytochrome P450 3A4 (Homo sapiens, UniProt P08684). Description: Inhibition of CYP3A4 (unknown origin) at <=10 uM. The class given is ADME.
In the next series the target is Cytochrome P450 2D6 (Homo sapiens, UniProt P10635). The series can be described thus: Inhibition of CYP2D6 (unknown origin) at <=10 uM. The class given is ADME.
A further series relates to HepG2. The series can be described thus: Cytotoxicity against human HepG2 cells assessed as cell reduction in cell viability incubated for 48 hrs by MTS assay. The class given is cell-based. The following applies: HepG2, 48 h. Background: Formazan colour is commonly taken as a measure of viable cells.
Series [6] can be described thus: in vitro. As to conditions: mouse, liver microsomes.
Series [7] in a line: in vitro. The following applies: PAMPA.
Description: Permeability coefficient of the compound in PBS buffer incubated for 5 hrs by PAMPA-based LC-MS analysis

Chain of Acetylcholinesterase (O42275 whole entry): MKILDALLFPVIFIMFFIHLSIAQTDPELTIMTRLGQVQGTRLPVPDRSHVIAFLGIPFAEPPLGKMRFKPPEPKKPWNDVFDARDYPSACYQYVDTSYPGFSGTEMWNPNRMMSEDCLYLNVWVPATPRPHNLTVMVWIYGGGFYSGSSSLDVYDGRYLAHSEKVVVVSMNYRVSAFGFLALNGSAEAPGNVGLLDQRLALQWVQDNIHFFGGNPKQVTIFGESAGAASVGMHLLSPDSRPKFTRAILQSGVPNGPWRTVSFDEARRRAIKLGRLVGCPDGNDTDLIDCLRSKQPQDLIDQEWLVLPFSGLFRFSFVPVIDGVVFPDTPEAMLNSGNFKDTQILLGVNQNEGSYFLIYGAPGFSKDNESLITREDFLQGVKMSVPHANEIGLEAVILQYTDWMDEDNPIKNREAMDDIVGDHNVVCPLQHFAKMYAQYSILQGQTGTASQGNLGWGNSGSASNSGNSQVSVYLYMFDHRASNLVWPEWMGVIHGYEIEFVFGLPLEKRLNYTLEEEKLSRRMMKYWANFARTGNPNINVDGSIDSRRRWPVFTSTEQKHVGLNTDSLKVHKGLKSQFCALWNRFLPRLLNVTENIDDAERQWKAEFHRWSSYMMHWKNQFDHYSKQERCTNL
T1 sequence (P50406 whole entry): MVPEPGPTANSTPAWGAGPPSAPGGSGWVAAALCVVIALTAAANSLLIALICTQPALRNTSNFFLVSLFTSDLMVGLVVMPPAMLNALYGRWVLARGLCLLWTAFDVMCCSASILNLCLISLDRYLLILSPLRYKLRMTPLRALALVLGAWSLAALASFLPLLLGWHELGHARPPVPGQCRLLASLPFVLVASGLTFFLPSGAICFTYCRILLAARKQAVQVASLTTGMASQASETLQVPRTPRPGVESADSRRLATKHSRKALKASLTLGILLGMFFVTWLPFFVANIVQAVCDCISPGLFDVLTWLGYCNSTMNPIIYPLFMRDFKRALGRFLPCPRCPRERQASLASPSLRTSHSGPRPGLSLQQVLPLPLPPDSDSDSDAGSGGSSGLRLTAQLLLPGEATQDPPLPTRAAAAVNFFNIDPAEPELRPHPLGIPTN
T2 sequence (P05067 whole entry): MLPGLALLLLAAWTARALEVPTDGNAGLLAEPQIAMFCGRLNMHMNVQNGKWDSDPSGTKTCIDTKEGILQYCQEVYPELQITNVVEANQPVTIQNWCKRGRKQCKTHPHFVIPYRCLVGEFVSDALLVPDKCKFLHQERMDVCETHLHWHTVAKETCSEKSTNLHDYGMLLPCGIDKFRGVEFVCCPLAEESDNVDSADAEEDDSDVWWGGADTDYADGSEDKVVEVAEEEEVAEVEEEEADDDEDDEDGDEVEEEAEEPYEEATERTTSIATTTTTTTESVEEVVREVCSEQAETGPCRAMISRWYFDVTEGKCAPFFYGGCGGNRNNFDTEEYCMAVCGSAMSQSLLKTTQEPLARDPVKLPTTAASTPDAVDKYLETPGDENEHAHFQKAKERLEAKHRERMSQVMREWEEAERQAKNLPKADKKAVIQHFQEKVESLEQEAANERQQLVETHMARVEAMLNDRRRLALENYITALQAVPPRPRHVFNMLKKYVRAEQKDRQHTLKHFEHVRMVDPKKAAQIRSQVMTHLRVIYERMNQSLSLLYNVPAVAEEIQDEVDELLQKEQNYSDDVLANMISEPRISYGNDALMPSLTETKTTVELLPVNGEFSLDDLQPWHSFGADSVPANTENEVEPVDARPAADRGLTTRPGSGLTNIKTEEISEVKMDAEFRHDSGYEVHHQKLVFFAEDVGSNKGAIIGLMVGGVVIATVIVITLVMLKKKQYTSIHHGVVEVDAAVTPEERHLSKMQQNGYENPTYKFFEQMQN
Chain of Cholinesterase (P81908 whole entry): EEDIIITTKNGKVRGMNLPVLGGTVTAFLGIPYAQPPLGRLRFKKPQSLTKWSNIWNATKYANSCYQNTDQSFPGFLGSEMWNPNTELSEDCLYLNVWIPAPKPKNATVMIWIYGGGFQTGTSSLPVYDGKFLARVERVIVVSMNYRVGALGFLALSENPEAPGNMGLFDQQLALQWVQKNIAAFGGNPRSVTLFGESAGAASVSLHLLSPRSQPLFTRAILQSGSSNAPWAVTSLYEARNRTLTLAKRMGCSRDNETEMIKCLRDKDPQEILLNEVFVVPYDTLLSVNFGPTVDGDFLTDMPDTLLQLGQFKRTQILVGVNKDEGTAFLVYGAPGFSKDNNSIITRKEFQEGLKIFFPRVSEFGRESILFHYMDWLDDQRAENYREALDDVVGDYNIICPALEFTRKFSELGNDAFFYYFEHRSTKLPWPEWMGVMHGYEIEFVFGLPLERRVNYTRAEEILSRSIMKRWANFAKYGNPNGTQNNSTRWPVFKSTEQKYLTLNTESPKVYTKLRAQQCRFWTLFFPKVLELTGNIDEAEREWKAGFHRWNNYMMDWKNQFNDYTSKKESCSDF
Chain of Cytochrome P450 2D6 (P10635 whole entry): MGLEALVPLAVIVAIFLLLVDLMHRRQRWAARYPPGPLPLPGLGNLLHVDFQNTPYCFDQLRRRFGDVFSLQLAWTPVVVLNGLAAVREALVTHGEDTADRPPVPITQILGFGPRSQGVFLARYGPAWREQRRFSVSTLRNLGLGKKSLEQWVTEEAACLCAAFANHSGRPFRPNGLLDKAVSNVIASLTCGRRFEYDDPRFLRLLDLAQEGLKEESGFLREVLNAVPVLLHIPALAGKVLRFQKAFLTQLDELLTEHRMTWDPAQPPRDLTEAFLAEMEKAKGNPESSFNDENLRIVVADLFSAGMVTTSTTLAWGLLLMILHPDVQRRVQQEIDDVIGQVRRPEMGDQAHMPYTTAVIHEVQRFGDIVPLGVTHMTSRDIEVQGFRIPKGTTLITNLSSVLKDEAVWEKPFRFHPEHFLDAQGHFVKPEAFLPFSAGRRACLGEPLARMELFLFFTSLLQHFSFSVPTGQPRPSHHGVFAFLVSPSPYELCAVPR
Chain of Cytochrome P450 3A4 (P08684 whole entry): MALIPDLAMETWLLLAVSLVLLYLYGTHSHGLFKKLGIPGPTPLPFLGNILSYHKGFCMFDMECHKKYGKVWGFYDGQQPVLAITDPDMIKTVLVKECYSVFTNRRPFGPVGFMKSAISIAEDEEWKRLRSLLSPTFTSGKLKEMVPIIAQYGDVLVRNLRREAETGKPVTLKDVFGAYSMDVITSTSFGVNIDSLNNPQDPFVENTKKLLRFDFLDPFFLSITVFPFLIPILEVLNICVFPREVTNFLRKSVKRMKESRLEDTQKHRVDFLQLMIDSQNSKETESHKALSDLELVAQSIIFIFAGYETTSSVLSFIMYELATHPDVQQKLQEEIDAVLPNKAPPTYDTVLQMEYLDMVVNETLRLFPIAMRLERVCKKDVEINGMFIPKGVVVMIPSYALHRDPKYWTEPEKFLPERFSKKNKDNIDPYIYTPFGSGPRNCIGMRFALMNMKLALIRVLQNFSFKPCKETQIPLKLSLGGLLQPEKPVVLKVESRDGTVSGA

`O=S(=O)(c1ccccc1)n1ccc2c(OCCNCCCCCNc3c4c(nc5ccccc35)CCCC4)cccc21` registered a Ki in [1] of 0.007 µM. Further, the IC50 at Acetylcholinesterase (read-out: IC50) was found to be 0.303 µM; against Cholinesterase, 0.00217 µM. The inhibition in [2] was 73.2%.
`Cc1cccc(CNCCNCCOc2cccc3c2ccn3S(=O)(=O)c2ccccc2)c1` returned a Ki in [1] of 0.002 µM. The half-maximal inhibitory concentration (IC50) was determined as 4470 µM on Acetylcholinesterase (read-out: IC50) and 1.07 µM at Cholinesterase. The inhibition in series [2] stood at 57.4%; in series [3] it was 48.5%; in the series filed under Homo sapiens it was 58.8%.
`O=S(=O)(c1ccccc1)n1ccc2c(OCCNCCNCc3ccccc3Cl)cccc21`: the inhibitory constant (Ki) in [1] was found to be 0.003 µM. Further, in series [4], the Kb amounted to 0.058 µM. Besides, the half-maximal inhibitory concentration (IC50) turned out to be 4.24 µM at Acetylcholinesterase (read-out: IC50) and 0.586 µM against Cholinesterase. The inhibition in series [2] was 57%; in series [3] it was 27.5%; in the series filed under Homo sapiens it was 53.5%.
Consider `O=S(=O)(c1ccccc1)n1ccc2c(OCCNCCCCCCNc3c4c(nc5ccccc35)CCCC4)cccc21`, for which the Ki in [1] came to 0.0086 µM. The IC50 at Acetylcholinesterase (read-out: IC50) came to 0.0725 µM; on Cholinesterase, 0.00407 µM. Besides, in series [2], the inhibition stood at 69.2%.
Take `O=S(=O)(c1ccccc1)n1ccc2c(OCCNCCNCc3ccc(Cl)cc3)cccc21`: in [1], the Ki stood at 0.001 µM. Moreover, the half-maximal inhibitory concentration (IC50) result is “Not Active” against Acetylcholinesterase and 1.99 µM against Cholinesterase. Also, the inhibition in series [2] was found to be 60.6%; in [3], 31.9%; in the series filed under Homo sapiens, 58.2%.
Compound `COc1ccc(CNCCNCCOc2cccc3c2ccn3S(=O)(=O)c2ccccc2)cc1` came in with a Ki in [1] of 0.0035 µM. Besides, the IC50 entry is “Not Active” on Acetylcholinesterase and 2.07 µM against Cholinesterase. Further, the figures for the inhibition (in series [2]; in series [3]; in the series filed under Homo sapiens) were 63.8%, 41.4% and 64%, respectively.
Turning to `O=S(=O)(c1ccccc1)n1ccc2c(OCCNCCNCc3cc(Cl)cc(Cl)c3)cccc21`, the Ki in [1] was found to be 0.011 µM. The IC50 entry at Acetylcholinesterase is “Not Active”; against Cholinesterase it was 1.66 µM. Besides, the values for the inhibition (in series [2]; in series [3]; in the series listed under Homo sapiens) were 57.2%, 40.9% and 62.3%, respectively.
In [1], `O=S(=O)(c1ccccc1)n1ccc2c(OCCNCCNCc3ccc(F)cc3)cccc21` displayed a Ki of 0.0001 µM. For the same compound, the results for the IC50 at Acetylcholinesterase (read-out: IC50) and on Cholinesterase were 6210 µM and 1.3 µM, respectively. For the same compound, the figures for the inhibition (in [2]; in series [3]; in the series filed under Homo sapiens) were 73.4%, 23.7% and 58%, respectively.
Turning to `O=S(=O)(c1ccccc1)n1ccc2c(OCCNCCNCc3ccccc3)cccc21`, the inhibitory constant (Ki) in series [1] came to 0.003 µM. Moreover, in series [4], the Kb is 0.009 µM. Also, the figures for the IC50 at Acetylcholinesterase (read-out: IC50) and at Cholinesterase were 2.87 µM and 0.528 µM, respectively. The inhibition was 55% in [2], 26.9% in [3] and 58.1% in the series listed under Homo sapiens.
The compound `O=[N+]([O-])c1ccc(CNCCNCCOc2cccc3c2ccn3S(=O)(=O)c2ccccc2)cc1` gave a Ki in series [1] of 0.002 µM. Moreover, the IC50 result on Acetylcholinesterase was “Not Active”; on Cholinesterase it was 4.26 µM. The inhibition in [2] was determined as 57.7%; in series [3], 31.6%; in the series filed under Homo sapiens it was 62.3%.
For `O=S(=O)(c1ccccc1)n1ccc2c(OCCNCCCNCc3ccccc3)cccc21`, the Ki in series [1] was found to be 0.008 µM. The IC50 entry on Acetylcholinesterase is “Not Active”; against Cholinesterase, 0.701 µM. Also, the inhibition in series [2] was 53.2%.
`O=S(=O)(c1ccccc1)n1ccc2c(OCCNCCNCc3cccc(Cl)c3)cccc21` gave a Ki in series [1] of 0.002 µM. Moreover, the figures for the concentration for half-maximal inhibition (IC50) on Acetylcholinesterase (read-out: IC50) and against Cholinesterase were 4.84 µM and 1.07 µM, respectively. Besides, the inhibition turned out to be 64.3% in series [2], 25.7% in series [3] and 57.5% in the series filed under Homo sapiens.
In series [1], `O=S(=O)(c1ccccc1)n1ccc2c(OCCNCCNc3c4c(nc5ccccc35)CCCC4)cccc21` had an inhibitory constant (Ki) of 0.013 µM. The IC50 was found to be 0.00842 µM on Acetylcholinesterase (read-out: IC50), 1.1 µM in series [5], 79.6 µM in the series with HepG2 and 0.0244 µM at Cholinesterase. In addition, in series [2], the inhibition came out at 74.8%. Further, the “inhibition (INH)” value against Cytochrome P450 3A4 and at Cytochrome P450 2D6 was “Not Active” throughout. In addition, the metabolised at 2 h in the series “in vitro [6]” was determined as 72%.
`O=S(=O)(c1ccccc1)n1ccc2c(OCCNCCCCNCc3ccccc3)cccc21` displayed a Ki in [1] of 0.008 µM. Besides, the results for the IC50 result against Acetylcholinesterase and against Cholinesterase were “Not Active” and 0.887 µM, respectively. Besides, the inhibition in [2] amounted to 41.8%.
As to `O=S(=O)(c1ccccc1)n1ccc2c(OCCNCCCNc3c4c(nc5ccccc35)CCCC4)cccc21`, the Ki in series [1] was found to be 0.01 µM. In addition, the values for the half-maximal inhibitory concentration (IC50) on Acetylcholinesterase (read-out: IC50) and at Cholinesterase were 0.0209 µM and 0.0188 µM, respectively. In series [2], the inhibition was 61.1%.
`O=S(=O)(c1ccccc1)n1ccc2c(OCCNCCCCNc3c4c(nc5ccccc35)CCCC4)cccc21` came in with a Ki in [1] of 0.0035 µM. The Kb in series [4] was found to be 0.01 µM. Also, the half-inhibitory concentration (IC50) on Acetylcholinesterase (read-out: IC50) came to 0.0575 µM; against Cholinesterase it was 0.00939 µM. Further, the inhibition in series [2] turned out to be 77.4%.
`O=S(=O)(c1ccccc1)n1ccc2c(OCCNCCCCCNCc3ccccc3)cccc21`: affinity in [1] was put at a Ki of 0.012 µM. Also, the results for the IC50 result on Acetylcholinesterase and on Cholinesterase were “Not Active” and 0.394 µM, respectively. The inhibition came to 62.5% in series [2], 36.5% in series [3] and 51.7% in the series listed under Homo sapiens.
As to `CCN(C)C(=O)Oc1cccc([C@H](C)N(C)C)c1`, the inhibition in [2] amounted to 86.6%.
The compound `CCN(C)C(=O)Oc1cccc(CNCCNCCOc2cccc3c2ccn3S(=O)(=O)c2ccccc2)c1` registered a Ki in series [1] of 0.015 µM. Also, the Kb in series [4] was found to be 0.048 µM. In addition, the IC50 entry against Acetylcholinesterase is “Not Active”; in series [5], 1.38 µM; in the series on HepG2, 21.1 µM; on Cholinesterase, 0.454 µM. Also, the figures for the inhibition (in series [2]; in series [3]; in the series listed under Homo sapiens) were 68.1%, 77.5% and 68.7%, respectively. In addition, the “inhibition (INH)” value on Cytochrome P450 3A4 and at Cytochrome P450 2D6 was “Not Active” throughout. In the series “in vitro [7]”, this compound returned a Papp at 5 h of 1.27 ×10⁻⁶ cm/s. Besides, the metabolised at 2 h in the series “in vitro [6]” came out at 40%.
On to `O=S(=O)(c1ccccc1)n1ccc2c(OCCNCCNCc3cccc(C(F)(F)F)c3)cccc21`, for which the affinity in series [1] corresponds to a Ki of 0.0017 µM. Further, the Kb in series [4] came out at 0.007 µM. Besides, the IC50 result on Acetylcholinesterase was “Not Active”; on Cholinesterase, 2.12 µM. In addition, the inhibition result in series [2] is “inactive”. In addition, the inhibition is 37.1% in [3] and 79.4% in the series filed under Homo sapiens.
